Source: ChEMBL document CHEMBL1149931, “4-(2-pyridyl)-2,2-dimethylnaphthalen-1-ones as new potassium channel activators with increased airways selectivity” (Bioorg Med Chem Lett, 1995)
pIC50: −log10 of the molar value.

How the values were obtained:
Cavia porcellus [1] = species: Cavia porcellus; test: Concentration required to inhibit spontaneous tone of guinea pig isolated tracheal spirals; assay type: functional; conditions: Trachea
Rattus norvegicus [2] = species: Rattus norvegicus; test: Percent inhibition of NA-induced contractions in rat portal vein at 10 uM was evaluated; assay type: functional; conditions: for inhibition at 10 µM: Rattus norvegicus
Rattus norvegicus [3] = species: Rattus norvegicus; test: Concentration required to inhibit NA-induced contractions in rat portal vein by 50%; assay type: functional
Rattus norvegicus [4] = test: Changes in systolic blood pressure was measured at intervals of 1 hr for 4 hr after oral administration of 0.1 mg/kg in rats; assay type: functional, Artery
Cavia porcellus [5] = species: Cavia porcellus; test: Compound was evaluated for its hypotensive activity (decrease in blood pressure) in male guinea pigs.; assay type: functional
Cavia porcellus [6] = test: Compound was evaluated in vivo for its ability to inhibit methacholine induced bronchospasm in male guinea pig.; assay type: functional
Rattus norvegicus [7] = species: Rattus norvegicus; test: Compound was evaluated for its hypotensive activity (decrease in blood pressure) in normotensive rats.; assay type: functional

| Compound | pIC50 (Cavia porcellus [1]) | inhibition at 10 µM (Rattus norvegicus [2]) | Inhibition (Rattus norvegicus [2]) | pIC50 (Rattus norvegicus [3]) | Max fall in blood pressure (Rattus norvegicus [4]) | ED25 (Cavia porcellus [5]) | ED25 (Cavia porcellus [6]) | ED25 (Rattus norvegicus [7]) | ED50 (Cavia porcellus [6]) |
| --- | --- | --- | --- | --- | --- | --- | --- | --- | --- |
| CC1(C)CC(O)(c2cccc[n+]2[O-])c2cc(C#N)ccc2C1=O (stereo not drawn) | 5.14 | 30% | – | – | – | – | – | – | – |
| CC1(C)C(=O)c2ccc(Br)cc2C2(c3cccc[n+]3[O-])OC12 (stereo not drawn) | 5.77 | – | 12% | – | – | – | – | – | – |
| CC1(C)CC(c2cccc[n+]2[O-])c2cc(C#N)ccc2C1=O (stereo not drawn) | 5.60 | – | – | 6.80 | 99.5 mmHg | – | – | – | – |
| CC1(C)Oc2ccc(C#N)cc2[C@H](N2CCCC2=O)[C@H]1O (single isomer, unassigned) [(-)-CROMAKALIM] | 6.55 | – | – | 7.00 | – | 0.0075 mg/kg | 0.0162 mg/kg | 0.0215 mg/kg | – |
| CC1(C)C=C(c2cccc[n+]2[O-])c2cc(C#N)ccc2C1=O | 6.70 | – | – | 6.05 | – | 0.0647 mg/kg | 0.0303 mg/kg | 0.079 mg/kg | – |
| COC1(c2cccc[n+]2[O-])CC(C)(C)C(=O)c2ccc(Br)cc21 (stereo not drawn) | < 5.00 | 20% | – | – | – | – | – | – | – |
| CC1(C)C=C(c2cccc[n+]2[O-])c2cc(Br)ccc2C1=O | 6.64 | – | – | 6.09 | 53 mmHg | 0.0891 mg/kg | – | 0.0877 mg/kg | 0.148 mg/kg |
| CC1(C)C=C(c2cccc[n+]2[O-])c2cc(C(F)(F)C(F)(F)F)ccc2C1=O | 6.96 | – | – | 6.23 | – | 0.0876 mg/kg | 0.036 mg/kg | 0.776 mg/kg | – |
| CC1(C)C=C(c2cccc[n+]2[O-])c2cc(Cl)c(Cl)cc2C1=O | 6.68 | – | – | 6.33 | 74 mmHg | 0.0933 mg/kg | – | 0.079 mg/kg | 0.0912 mg/kg |
| CC1(C)C=C(c2ccccn2)c2cc(Br)ccc2C1=O | < 5.00 | – | – | 4.32 | – | – | – | – | – |
